Source: patent US6218597A, “Transgenic model and treatment for heart disease” (University Technology Corporation, priority 1998, dated 2001)

Molecular target: βAR (β-adrenergic receptor), cardiac sarcolemmal membranes of wild-type FVB/N mice
Conditions: read-out: Kd for ICYP

Kd: ~0.02 nM
SMILES: CC(C)(C)NCC(O)COc1cccc2[nH]c(C#N)c([125I])c12 (stereo not shown) [ICYP, ^125 I-iodocyanopindolol]
